Test results as given in publication PMC7460285, “OctoPartenopin: Identification and Preliminary Characterization of a Novel Antimicrobial Peptide from the Suckers of Octopus vulgaris” (Marine Drugs, 2020).
Ends that are not written are not given here.

What was measured:
[1] = system: S. aureus ATCC 6538; experiment: Agar diffusion assay (inhibition zone diameter); format: cell-based, Staphylococcus aureus; parameters: key: R: Resistant; I: Intermediate; S: Sensitive; details: 5 μg ampicillin, 5 μg gentamicin, 37 °C, 24 h
Procedure: (§1) Microorganisms used for this study were as follows: Staphylococcus aureus ATCC 6538, Pseudomonas aeruginosa ATCC 9027, and Candida albicans ATCC 90028. Microorganisms were routinely cultured in tryptic soy broth (TSB) supplemented with 0.1% glucose, at 37 °C, for 18 h prior to experiments, and corresponding cell concentration was adjusted to 10^6 CFU mL^−1 by optical density at 600 nm. Stock cultures were maintained in trypticase soy agar (TSA) and Sabouraud dextrose agar containing glycerol at −80 °C.
(§2) For antimicrobial testing, the agar disc diffusion method was used and the antimicrobial susceptibility was detected by analyzing the inhibition zones, measured and compared according to the standards set by the CLSI [106], which classify the strains as sensitive (S), intermediate (I), or resistant (R). All tests were performed in duplicate, and the antimicrobial activity was expressed as the mean of inhibition diameters (mm, ±standard deviation, SD) produced by the extracts.
(§3) Microorganisms were cultivated overnight and a suspension containing 10^6 CFU mL^−1 was spread on plates containing TSA or Sabouraud agar. Holes of approximately 5 × 3 mm were made in the agar and were filled with 30 μL of the extract stock solution (1 mg/mL). After incubation at 37 °C for 24 h, inhibition zones were measured in millimeters and compared to the controls. […]

[2] = system: P. aeruginosa ATCC 9027; experiment: Agar diffusion assay (inhibition zone diameter); format: cell-based, Pseudomonas aeruginosa; parameters: key: R: Resistant; I: Intermediate; S: Sensitive; details: 5 μg ampicillin, 5 μg gentamicin, 37 °C, 24 h
Procedure: as §1, §2, §3

[3] = system: mature biofilms of S. aureus, P. aeruginosa, and C. albicans; experiment: Mature biofilm eradication assay, crystal violet; format: cell-based; details: preformed 24 h biofilm, peptide 10 to 80 μM for 24 h, 30 °C; for Dispersion (clearance) of mature biofilm biomass: strain and concentration not stated for the values (Figure 4)
Procedure: (§4) The microorganism’s ability to form biofilm was determined using the method previously described in our laboratory. Bacterial and fungal biofilm prevention and eradication assays were performed based on our published protocols. Synthetized peptides (P0–P4) were tested at sub-MIC concentrations ranging from 10 to 80 μM in triplicate in both assays. For the prevention of biofilm formation, diluted cultures of each strain were added to 96-well plates and incubated with peptides (at concentrations ranging from 10 to 80 μM) at 30 °C, for 24 h. For the eradication of mature biofilm, diluted cultures of C. albicans and two bacteria were added to 96-well plates and incubated at 30 °C. After 24 h, the planktonic cells and medium were aspirated from the wells and fresh medium was added to the well, followed by peptides at the same concentrations. Plates were incubated at 30 °C, for an additional 24 h. For both above mentioned assays, the planktonic cells and medium were aspirated at the end of the final incubation period, and wells were washed twice with PBS. The residual attached biofilms were fixed with 95% v/v ethanol per well and, after 20 min, plates were emptied and left to dry. Plates were stained for 15 min with 0.1% w/v crystal violet. Excess stain was then removed by rinsing the plate with PBS. The plates were allowed to dry, and the crystal violet-stained biofilm was solubilized with 200 μL of 30% v/v glacial acetic acid per well. The OD of each well was measured at 550 nm with a microplate reader. The same formula described above was used to quantify the biofilm biomass forming when the incubation was done with peptides or when remaining after incubation with peptides. The percentage of biofilm inhibition and eradication was determined by the formula: biofilm reduction % = OD control − OD sample/OD control × 100%.

[4] = system: C. albicans ATCC 90028; experiment: Broth microdilution MIC determination; format: cell-based, Candida albicans; details: 80% inhibition of growth in liquid medium (TSB), 37 °C, 18 h, mean of three replicates ± SD
Procedure: as §1, with “°C. The minimum inhibitory concentration (MIC) determination was conducted as described in our previous papers. Briefly, microbes were inoculated in TSB and incubated at 37 °C to the exponential phase. Then, the inoculum was diluted with fresh TSB to 10^6 CFU/mL, and 50 μL microbial dilutions were mixed with serial dilutions of fractions or peptides (50 μL) in 96-well microtiter plates.” for “°C.”

[5] = system: S. aureus ATCC 6538; experiment: Broth microdilution MIC determination; format: cell-based, Staphylococcus aureus; details: 80% inhibition of growth in liquid medium (TSB), 37 °C, 18 h, mean of three replicates ± SD
Procedure: as §1, with “°C. The minimum inhibitory concentration (MIC) determination was conducted as described in our previous papers. Briefly, microbes were inoculated in TSB and incubated at 37 °C to the exponential phase. Then, the inoculum was diluted with fresh TSB to 10^6 CFU/mL, and 50 μL microbial dilutions were mixed with serial dilutions of fractions or peptides (50 μL) in 96-well microtiter plates.” for “°C.”

[6] = system: P. aeruginosa ATCC 9027; experiment: Broth microdilution MIC determination; format: cell-based, Pseudomonas aeruginosa; details: 80% inhibition of growth in liquid medium (TSB), 37 °C, 18 h, mean of three replicates ± SD
Procedure: as §1, with “°C. The minimum inhibitory concentration (MIC) determination was conducted as described in our previous papers. Briefly, microbes were inoculated in TSB and incubated at 37 °C to the exponential phase. Then, the inoculum was diluted with fresh TSB to 10^6 CFU/mL, and 50 μL microbial dilutions were mixed with serial dilutions of fractions or peptides (50 μL) in 96-well microtiter plates.” for “°C.”

[7] = system: C. albicans biofilm; format: cell-based, Candida albicans; details: 24 h
Procedure: as §4, with “For both above mentioned assays, the planktonic cells and medium were aspirated at the end of the final incubation period, and wells were washed twice with PBS. The residual attached biofilms were fixed with 95% v/v ethanol per well and, after 20 min, plates were emptied and left to dry. Plates were stained for 15 min with 0.1% w/v crystal violet. Excess stain was then removed by rinsing the plate with PBS. The plates were allowed to dry, and the crystal violet-stained biofilm was solubilized with 200 μL of 30% v/v glacial acetic acid per well.” left out

[8] = system: C. albicans ATCC 90028; experiment: Agar diffusion assay (inhibition zone diameter); format: cell-based, Candida albicans; parameters: key: R: Resistant; I: Intermediate; S: Sensitive; details: 1 μg amphotericin B, 37 °C, 24 h
Procedure: as §1, §2, §3

CNC(C)C1CCC(N)C(OC2C(N)CC(N)C(OC3OCC(C)(O)C(NC)C3O)C2O)O1 (stereo not shown) [G, Gentamicin]
Susceptibility class to positive control (CLSI interpretative chart) [1]: S
Susceptibility class to positive control (CLSI interpretative chart) [2]: S

AGTNK-NH2 [P0]
Dispersion (clearance) of mature biofilm biomass [3]: about 70%
MIC80 synthetized peptides [4]: 200 ± 3 µM
MIC80 synthetized peptides [5]: 150 ± 2 µM
MIC80 synthetized peptides [6]: 200 ± 3 µM

QAGSNKGASQKGMS-NH2 [P2]
Dispersion (clearance) of mature biofilm biomass [3]: ~90%
MIC80 synthetized peptides [4]: 100 ± 3 µM
Inhibition rate of biofilm formation [7]: about 40%
MIC80 synthetized peptides [5]: 50 ± 5 µM
MIC80 synthetized peptides [6]: 50 ± 2 µM

EGQGVISLQAGTNK-NH2 [P3]
Dispersion (clearance) of mature biofilm biomass [3]: ~80%
MIC80 synthetized peptides [4]: 100 ± 4 µM
MIC80 synthetized peptides [5]: 80 ± 1 µM
MIC80 synthetized peptides [6]: 50 ± 3 µM

C[C@@H]1[C@H](O)[C@@H](C)/C=C/C=C/C=C/C=C/C=C/C=C/C=C/[C@H](O[C@@H]2O[C@H](C)[C@@H](O)[C@H](N)[C@@H]2O)C[C@@H]2O[C@](O)(C[C@@H](O)C[C@@H](O)[C@H](O)CC[C@@H](O)C[C@@H](O)CC(=O)O[C@H]1C)C[C@H](O)[C@H]2C(=O)O [AMPH-B, amphotericin B]
Susceptibility class to positive control (CLSI interpretative chart) [8]: S

QAGTNK-NH2 [P1]
Antibiofilm (eradication) activity, in words [3]: weakest antibiofilm activity
MIC80 synthetized peptides [4]: 200 ± 5 µM
MIC80 synthetized peptides [5]: 150 ± 3 µM
MIC80 synthetized peptides [6]: 100 ± 5 µM

GEGIIGLQAGTNKFASQIGMKIGAVRHIADIR-NH2 [P4]
MIC80 synthetized peptides [4]: 180 ± 5 µM
MIC80 synthetized peptides [5]: 80 ± 5 µM
MIC80 synthetized peptides [6]: 50 ± 2 µM

CC1(C)S[C@@H]2[C@H](NC(=O)[C@H](N)c3ccccc3)C(=O)N2[C@H]1C(=O)O [AMP, Ampicillin]
Susceptibility class to positive control (CLSI interpretative chart) [1]: S
Susceptibility class to positive control (CLSI interpretative chart) [2]: R
